Tests used:
[1] = test system: hypoxia transcriptional response (HIF); test: Hypoxia biomarkers in mice (plasma Epo, hematocrit, blood glucose, hypoxia-induced brain transcripts); assay type: in vivo, mouse
Method: Plasma Epo measurements were performed with R&D Systems Epo Elisa Kit (MEP00B) according to manufacturer directions. Briefly, whole blood was collected with anticoagulant before centrifugation within 30 minutes of collection and stored at −80C until day of analysis. On the day of Epo assay, samples were thawed and diluted 2-fold and incubated in the assay plate for two hours. Each well was washed five times before the addition of Epo Conjugate followed by a two-hour incubation. Each well was washed five times before adding Substrate Solution to develop for 30 minutes before addition of Stop Solution. The optical density of each well was determined at 450nm and correction wavelength of 540/570.
Hematocrit was determined with an iStat VetScan 1 with Zoetis Chem 8+ cartridges. Blood glucose measurements were performed using OneTouch UltraPlus glucometer. Whole blood chemistry measurements were performed on a VetScan HM5.
Half of the hindbrain was collected at necropsy and immediately flash frozen. For RNA extraction, a stainless-steel bead (Qiagen) and 1 mL TRIzol™ Reagent (Thermo Fisher Scientific) were added to the frozen samples, which were rapidly lysed using a tissue lyser (Qiagen) for five 1-minute cycles of 30 Hz frequency. Subsequent steps for RNA isolation were identical as previously described.[9] Reverse transcription was performed using the QuantiTect Reverse Transcription Kit (Qiagen) instructions. Briefly, gDNA was wiped out from samples containing 1 μg RNA. gDNA-free RNA samples were reverse transcribed following Qiagen’s instructions. […] For each set of triplicates, an average CT value was obtained, and the difference in average CT between the target gene and β-actin was calculated (ΔCT). Next, the difference in ΔCT value between each sample and the average of the normoxia samples was calculated (ΔΔCT). Relative expression of each gene was determined by calculating 2^−ΔΔCT.

[2] = Stability of dosing suspension; assay type: physicochemical; conditions: suspension in 0.5% HPMC, stored at 4 °C
Method: Mice were administered HypoxyStat at 600 mg/kg every other day or 400mg/kg daily via oral gavage. For the disease prevention experiments, KO mice that underwent daily dosing were dosed starting ~P30 for 1 week of 200mg/kg daily, followed by 400mg/kg daily to allow for gradual dose escalation. For the reversal study, KO mice were dosed once with 200mg/kg on postnatal day ~P55, followed by 400mg/kg daily. HypoxyStat was formulated as a suspension at 60 mg/mL, 40mg/ml or 80mg/ml depending on dose in 0.5%HPMC and stored at 4 °C. The formulation was determined to be stable for at least 8 weeks. Animal body weight was taken at time of dosing to determine appropriate dosing volume (10 mL/kg for every other day dosing, 5ml/kg for daily dosing). Vehicle treated mice were administered the same volume of 0.5% HPMC.

O=Cc1ccccc1C(=O)N1CCCC[C@H]1COc1cccc(O)c1C=O [HypoxyStat]
circulating Epo and 5 hypoxia-induced transcripts in hindbrain ([1]; 400 mg/kg daily, 48 h, compared with inhaled hypoxia (11% O2)): induced to an equivalent or greater degree | Epo and hematocrit with increasing dose ([1]; oral gavage 3 times per week for 12 days, up to 600 mg/kg): substantial increases in both Epo and hematocrit | stability of formulation [2]: at least 8 weeks
